In brackets after ≈: the same amount, converted by molar mass.
Assays:
[1] = tested on: Mycobacterium tuberculosis variant bovis; assay: Antimycobacterial activity against Mycobacterium bovis BCG assessed as reduction in microbial growth incubated for 7 days by resazurin dye based assay; assay type: functional; conditions: 168 h, time 7 day
[2] = tested on: Mycobacterium tuberculosis variant bovis; assay: Bactericidal activity against Mycobacterium bovis BCG assessed as inhibition of bacterial growth incubated for 7 days by resazurin dye based assay; assay type: functional; conditions: 168 h, time 7 day

Compound | MIC99 [1] | MBC [2]
Brc1ccccc1CN1[C@H](CN2CCCC2)C[C@@H]1c1ccccc1 (racemic) | 65 µM | 
Clc1cc(Cl)cc([C@H]2C[C@@H](CN3CCCC3)N2Cc2ccccc2Br)c1 (racemic) | 11 µM | 
COCCNC[C@@H]1C[C@H](c2ccc(OC(F)(F)F)cc2)N1Cc1ccccc1OC(F)(F)F (racemic) | 30 µM | 
C#CCNC[C@@H]1C[C@H](c2cc(Br)cc(Br)c2)N1Cc1ccccc1Br (racemic) | 54 µM | 
CC(C)NC[C@@H]1C[C@H](c2ccccc2)N1Cc1ccccc1OC(F)(F)F (racemic) | 45 µM | 
FC(F)(F)c1cc([C@H]2C[C@@H](CN3CCCC3)N2Cc2ccccc2Br)cc(C(F)(F)F)c1 (racemic) | 22 µM | 12 µM (≈ 6.26 µg/mL)
CN(C)C[C@@H]1C[C@H](c2cc(Br)cc(Br)c2)N1Cc1ccccc1Br (racemic) | 48 µM | 
FC(F)(F)Oc1ccc([C@H]2C[C@@H](CN3CCCC3)N2Cc2ccccc2OC(F)(F)F)cc1 (racemic) |  | 12 µM (≈ 5.69 µg/mL)
COc1ccc([C@H]2C[C@@H](CN3CCCC3)N2Cc2ccccc2Br)cc1 (racemic) | 42.6 µM | 
CC(C)NC[C@@H]1C[C@H](c2ccc(OC(F)(F)F)cc2)N1Cc1ccccc1OC(F)(F)F (racemic) | 26 µM | 
FC(F)(F)c1ccc(C2CCN(C[C@@H]3C[C@H](c4ccccc4)N3Cc3ccccc3Br)CC2)cc1 (racemic) | 60 µM | 
CC(C)NC[C@@H]1C[C@H](c2ccc(OC(F)(F)F)cc2)N1Cc1ccccc1Br (racemic) | 24 µM | 
CC(C)NC[C@@H]1C[C@H](c2ccccc2)N1Cc1ccccc1Br (racemic) | 51 µM | 
FC(F)(F)Oc1ccc(C2CCN(C[C@@H]3C[C@H](c4ccccc4)N3Cc3ccccc3Br)CC2)cc1 (racemic) | 56 µM | 

From ChEMBL document CHEMBL5385915 (J Med Chem, 2024)
